Where two headings read alike, the source gives them in different places.
How the values were obtained:
GRK5 [1] = target: T1, GRK5 (Homo sapiens, UniProt P34947); experiment: Intact protein MS, adduct formation with GRK5; conditions: for Adduct by MS: incubation time needed to observe adduct formation with GRK5: intact mass MS; for covalent adduct formation with GRK5 (in words): intact MS
GRK5 [2] = target: T1, GRK5; experiment: Kinome-wide selectivity panel, GRK5; conditions: read-out: inhibition of GRK5
GRK5 [3] = target: T1, GRK5; experiment: Covalent inhibition kinetic analysis
[4] = Thermodynamic solubility, miniaturized shake-flask; format: physicochemical
[5] = Microsomal stability, HLM; format: in vitro ADME; conditions: human, human liver microsomes
bovine GRK2 = target: T2, bovine GRK2 (Bos taurus, UniProt P21146); experiment: Radiometric GRK2 inhibition assay; format: biochemical
T2 sequence (P21146 1-689): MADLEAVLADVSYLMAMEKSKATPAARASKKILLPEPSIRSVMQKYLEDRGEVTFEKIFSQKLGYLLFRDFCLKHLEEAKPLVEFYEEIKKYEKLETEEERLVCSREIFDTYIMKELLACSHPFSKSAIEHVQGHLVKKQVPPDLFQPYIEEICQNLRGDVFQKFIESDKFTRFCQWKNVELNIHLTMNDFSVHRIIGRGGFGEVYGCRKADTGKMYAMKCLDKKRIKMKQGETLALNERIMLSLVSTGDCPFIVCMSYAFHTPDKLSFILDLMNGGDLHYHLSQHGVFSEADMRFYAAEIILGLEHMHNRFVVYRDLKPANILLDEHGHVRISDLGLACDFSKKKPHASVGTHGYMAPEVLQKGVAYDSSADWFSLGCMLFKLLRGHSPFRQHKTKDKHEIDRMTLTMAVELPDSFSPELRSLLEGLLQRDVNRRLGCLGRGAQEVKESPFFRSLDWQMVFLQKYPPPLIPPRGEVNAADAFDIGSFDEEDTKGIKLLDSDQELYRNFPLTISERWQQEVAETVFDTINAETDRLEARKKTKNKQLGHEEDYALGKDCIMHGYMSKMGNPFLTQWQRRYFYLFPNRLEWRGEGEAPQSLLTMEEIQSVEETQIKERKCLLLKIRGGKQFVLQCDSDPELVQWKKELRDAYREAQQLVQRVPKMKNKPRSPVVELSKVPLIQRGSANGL

PKA = PKA (Homo sapiens, UniProt P17612); experiment: PKA inhibition assay, ADP-Glo
[6] = cited from earlier work
[7] = test system: rodent model of hypertrophy; conditions: cited from earlier work

T1 sequence (P34947 whole entry): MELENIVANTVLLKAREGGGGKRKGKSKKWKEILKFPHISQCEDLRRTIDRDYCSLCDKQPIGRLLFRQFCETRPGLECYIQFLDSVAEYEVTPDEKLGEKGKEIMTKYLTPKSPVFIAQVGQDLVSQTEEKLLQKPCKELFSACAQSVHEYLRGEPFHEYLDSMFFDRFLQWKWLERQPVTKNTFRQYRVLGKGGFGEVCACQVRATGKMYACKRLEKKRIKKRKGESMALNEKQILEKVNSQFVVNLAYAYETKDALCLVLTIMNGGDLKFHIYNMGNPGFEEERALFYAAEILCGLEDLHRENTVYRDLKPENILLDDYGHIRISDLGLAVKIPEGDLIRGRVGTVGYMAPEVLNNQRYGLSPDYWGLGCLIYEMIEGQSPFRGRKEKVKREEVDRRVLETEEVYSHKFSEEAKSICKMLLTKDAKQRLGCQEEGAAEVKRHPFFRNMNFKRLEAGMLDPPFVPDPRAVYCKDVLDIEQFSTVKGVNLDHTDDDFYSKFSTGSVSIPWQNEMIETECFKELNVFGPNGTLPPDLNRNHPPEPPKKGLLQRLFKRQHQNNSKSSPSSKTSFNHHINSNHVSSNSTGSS

Which “Adduct by MS: incubation time needed to observe adduct formation with GRK5” value (GRK5 [1]; Table 1) does the source give for `C=CCCNC(=O)c1c(C)[nH]c(/C=C2\C(=O)Nc3ccc(C(=O)N[C@H](C)c4ccccc4)cc32)c1C` (mixture of isomers) [Compound 5f, (R,Z)-3-((4-(but-3-en-1-ylcarbamoyl)-3,5-dimethyl-1H-pyrrol-2-yl)methylene)-2-oxo-N-(1-phenylethyl)indoline-5-carboxamide] here?
Its value is over 30 min.

For `CC#CC(=O)Nc1c(C)[nH]c(/C=C2\C(=O)Nc3ccc(C(=O)N[C@H](C)c4ccccc4)cc32)c1C` (mixture of isomers) [Compound 9a, (R,Z)-3-((4-(but-2-ynamido)-3,5-dimethyl-1H-pyrrol-2-yl)methylene)-2-oxo-N-(1-phenylethyl)indoline-5-carboxamide], which “Adduct by MS: incubation time needed to observe adduct formation with GRK5” value (GRK5 [1]; Table 1) is on record?
The value was over 180 min.

And the “covalent adduct formation with GRK5 (in words)” value (GRK5 [1]; 30 min incubation)?
Its value is “unreactive”.

For `Cc1[nH]c(/C=C2\C(=O)Nc3ccc(C(=O)N[C@H](C)c4ccccc4)cc32)c(C)c1NC(=O)CBr` (mixture of isomers) [Compound 9g, (R,Z)-3-((4-(2-bromoacetamido)-3,5-dimethyl-1H-pyrrol-2-yl)methylene)-2-oxo-N-(1-phenylethyl)indoline-5-carboxamide], which inhibition at 0.01 µM (GRK5 [2]) is on record?
The inhibition at 0.01 µM was 50%.

What about the “Adduct by MS: percent adduct” value (GRK5 [1]; Table 1, 30 min incubation) of the same compound?
Its value is 70% 30 min.

And the “covalent adduct formation with GRK5 (in words)” value (GRK5 [1]; 30 min incubation)?
The value was “rapidly reacted with GRK5”.

What about the kinact (GRK5 [3]) of the same compound?
Its kinact is over 0.0167 s⁻¹.

For `Cc1[nH]c(/C=C2\C(=O)Nc3ccc(C(=O)N[C@H](C)c4ccccn4)cc32)c(C)c1NC(=O)CCl` (mixture of isomers) [Compound 9l, (R,Z)-3-((4-(2-chloroacetamido)-3,5-dimethyl-1H-pyrrol-2-yl)methylene)-2-oxo-N-(1-(pyridin-2-yl)ethyl)indoline-5-carboxamide], which “solubility improvement over 9e” value [4] is on record?
The value was 3.5 fold.

Which half-life [5] does the source give for `Cc1[nH]c(/C=C2\C(=O)Nc3ccc(C(=O)N[C@H](C)c4ccc(F)cc4)cc32)c(C)c1NC(=O)CCl` (stereo in doubt) [Compound 9j, (R,Z)-3-((4-(2-chloroacetamido)-3,5-dimethyl-1H-pyrrol-2-yl)methylene)-N-(1-(4-fluorophenyl)ethyl)-2-oxoindoline-5carboxamide] here?
The half-life was 18.9 min.

For `Cc1[nH]c(/C=C2\C(=O)Nc3ccc(C(=O)N[C@@H](c4ccccc4)C(C)C)cc32)c(C)c1NC(=O)CCl` (stereo in doubt) [Compound 9s, (R,Z)-3-((4-(2-chloroacetamido)-3,5-dimethyl-1H-pyrrol-2-yl)methylene)-N-(2-methyl-1-phenylpropyl)-2-oxoindoline-5-carboxamide], which IC50 (bovine GRK2) is on record?
The IC50 was 23 ± 20 µM.

And the IC50 (PKA)?
The IC50 was over 250 µM.

Which IC50 (bovine GRK2) does the source give for `Cc1[nH]c(/C=C2\C(=O)Nc3ccc(C(=O)NC(C)(C)c4ccccc4)cc32)c(C)c1NC(=O)CCl` [Compound 9r, (Z)-3-((4-(2-chloroacetamido)-3,5-dimethyl-1H-pyrrol-2-yl)methylene)-2-oxo-N-(2-phenylpropan-2-yl)indoline-5-carboxamide] here?
Its IC50 is 190 ± 70 µM.

Which results are given for `NCCCNCCCCNCCCNc1cc2nc(-c3ccccc3Cl)[nH]c(=O)c2cc1F` [KR-39038]?
bioavailability (in words) [6]: low bioavailability; half-life [6]: < 60 min; effect in a rodent model of hypertrophy (in words) [7]: mild positive effects

Source: PMC7909074 (Journal of medicinal chemistry, 2021)
